Here are results for ten compounds from ChEMBL document CHEMBL1201862, “PubChem BioAssay data set” (2004).

Test systems include A498; COLO 205; HOP-92; HT-29; IGROV-1; KM12; M14; NCI-H226; OVCAR-3; OVCAR-5; OVCAR-8; RXF 393; SF-295; SK-MEL-2; SN12C; SNB-19; SW-620; TK-10; UO-31; 786-0.
Assay in all cases: NCI anticancer screen, dose series, 48 h

Structures are written as SMILES.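 Dose response: 5 concentrations. Exposure: 48 h. Format: 96-well plates. Endpoint: linear interpolation; highest concentration if not reached. Abbreviation: GI50, concentration required for 50% inhibition of growth.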 Activity calls are given as the source filed them. Cut-off read from the data, not from the text of the source: active = GI50 up to about 1.1 µM and inactive = higher. Some results are limits rather than exact numbers.

With `CC(=O)OC1/C=C(\C)C(OC(C)=O)C/C=C(/C)CCC2C(/C=C/C1=O)C2(C)C` (configuration not stated), the GI50 with A498 is > 100 µM (inactive); with COLO 205, > 100 µM (inactive); in the test with HOP-92 it was 42.2 µM (inactive); with HT-29, > 100 µM (inactive); in the test on IGROV-1 it was > 100 µM (inactive); in the test with KM12, > 100 µM (inactive). Moreover, the GI50 was > 100 µM (inactive) with M14; > 100 µM (inactive) in the test with NCI-H226; > 100 µM (inactive) in the test on OVCAR-3; > 100 µM (inactive) with OVCAR-5; > 100 µM (inactive) in the test on OVCAR-8; 79.4 µM (inactive) with RXF 393. Moreover, the GI50 with SF-295 was 91 µM (inactive); with SK-MEL-2, > 100 µM (inactive); with SN12C, > 100 µM (inactive); in the test with SNB-19, > 100 µM (inactive); in the test on SW-620, > 100 µM (inactive); with TK-10, 64.7 µM (inactive). Also, the GI50 in the test with UO-31 was 67.5 µM (inactive).

On to `O=C1NC2OCC(O)C(O1)C2O` (configuration not stated), for which the GI50 in the test with 786-0, in the test on A498, in the test on COLO 205, with HOP-92, with HT-29 and in the test with IGROV-1 was > 100 µM (inactive) in each case. Also, the GI50 with KM12, in the test with M14, with NCI-H226, with OVCAR-3, in the test with OVCAR-5 and in the test on OVCAR-8 was > 100 µM (inactive) in each case. The GI50 with RXF 393, in the test on SF-295, in the test with SK-MEL-2, in the test on SN12C, with SNB-19 and with SW-620 was > 100 µM (inactive) throughout. For the same compound, the GI50 in the test with TK-10 and in the test with UO-31 was > 100 µM (inactive) each time.

Take `C=C1COC(/C=C(\C)CC/C=C(\C)CCl)C1` (configuration not stated): the GI50 is > 100 µM (inactive) in the test with 786-0; > 100 µM (inactive) in the test on A498; > 100 µM (inactive) in the test with COLO 205; 35.1 µM (inactive) with HOP-92; > 100 µM (inactive) in the test with HT-29; > 100 µM (inactive) in the test on IGROV-1. Further, the GI50 in the test on KM12, in the test with M14, with NCI-H226, with OVCAR-3, with OVCAR-5 and in the test on OVCAR-8 was > 100 µM (inactive) throughout. Moreover, the GI50 with RXF 393, with SF-295, in the test with SK-MEL-2, in the test on SN12C, with SNB-19 and with SW-620 was > 100 µM (inactive) throughout. Also, the GI50 in the test with TK-10 and with UO-31 was > 100 µM (inactive) throughout.

In the case of `CN(C)CC1CCCC1=O` (configuration not stated), the GI50 in the test with 786-0 is 7.53 µM (inactive); with A498, 10.5 µM (inactive); with COLO 205, 0.56 µM (active); in the test with HOP-92, 0.973 µM (active); in the test on HT-29, 0.682 µM (active); in the test on IGROV-1 it was 7.57 µM (inactive). In addition, the GI50 in the test with KM12 is 1.66 µM (inactive); with M14, 1.16 µM (inactive); in the test on NCI-H226, 14.4 µM (inactive); with OVCAR-3, 1.51 µM (inactive); in the test on OVCAR-5, 5.42 µM (inactive); in the test with OVCAR-8 it was 3.62 µM (inactive). In addition, the GI50 was 2.55 µM (inactive) in the test on RXF 393; 19.8 µM (inactive) in the test with SF-295; 5.21 µM (inactive) in the test with SK-MEL-2; 1.06 µM (active) with SN12C; 31 µM (inactive) with SNB-19; 0.2 µM (active) in the test with SW-620. For the same compound, the GI50 in the test on TK-10 was 2.96 µM (inactive); in the test on UO-31 it was 9.38 µM (inactive).

For the compound `CCOC(=O)c1cn2c(n1)sc1cc([N+](=O)[O-])ccc12`, the GI50 was 43.1 µM (inactive) in the test on 786-0; > 100 µM (inactive) in the test on A498; > 100 µM (inactive) in the test on COLO 205; > 100 µM (inactive) with HOP-92; 86.1 µM (inactive) with HT-29; > 100 µM (inactive) in the test with IGROV-1. In addition, the GI50 in the test with KM12, with M14, with NCI-H226, in the test on OVCAR-3, in the test with OVCAR-5 and with OVCAR-8 was > 100 µM (inactive) in each case. In addition, the GI50 with RXF 393 is > 100 µM (inactive); in the test on SF-295, 37.3 µM (inactive); with SK-MEL-2, > 100 µM (inactive); in the test with SN12C, > 100 µM (inactive); with SNB-19, 78.2 µM (inactive); in the test with SW-620, > 100 µM (inactive). In addition, the GI50 with TK-10 and with UO-31 was > 100 µM (inactive) in each case.

Regarding `CCOc1ccc(NC(=O)C(=O)CC(=O)c2c(C)[n+]([O-])c3ccccc3[n+]2[O-])cc1`, the GI50 in the test on 786-0, with A498, in the test on COLO 205, in the test with HOP-92, in the test with HT-29 and in the test on IGROV-1 was > 100 µM (inactive) each time. Also, the GI50 with KM12, with M14, with NCI-H226, with OVCAR-3, in the test on OVCAR-5 and in the test on OVCAR-8 was > 100 µM (inactive) throughout. Besides, the GI50 in the test with RXF 393, in the test with SF-295, with SK-MEL-2, in the test on SN12C, with SNB-19 and with SW-620 was > 100 µM (inactive) throughout. Further, the GI50 with TK-10 and with UO-31 was > 100 µM (inactive) in each case.

Take `CCOC(=O)C(NC(=O)N(C1=NCC(C)S1)C1CCCCC1)(OC)C(F)(F)F` (configuration not stated): the GI50 was 15.5 µM (inactive) with 786-0; 16.4 µM (inactive) in the test with A498; 23.2 µM (inactive) with COLO 205; 46 µM (inactive) in the test with HOP-92; 20.7 µM (inactive) with HT-29; 33 µM (inactive) in the test on KM12. Moreover, the GI50 in the test on M14 was 51.2 µM (inactive); in the test with NCI-H226 it was 21.1 µM (inactive); in the test with OVCAR-3, 24.3 µM (inactive); in the test on OVCAR-5, > 100 µM (inactive); in the test on OVCAR-8 it was 70.5 µM (inactive); with RXF 393 it was 17.9 µM (inactive). Also, the GI50 is 49.8 µM (inactive) in the test with SF-295; 34 µM (inactive) in the test on SK-MEL-2; 15.1 µM (inactive) in the test with SN12C; 49.3 µM (inactive) in the test on SNB-19; 35.2 µM (inactive) in the test on SW-620; 57.5 µM (inactive) in the test with TK-10. In the test on UO-31, the GI50 was 52 µM (inactive).

For `CC(C)(CN1CCCCC1)C(=O)/C=C/c1c(Cl)cccc1Cl`, the GI50 was 1.31 µM (inactive) in the test on 786-0; 1.57 µM (inactive) in the test on A498; 1.57 µM (inactive) with COLO 205; 1.05 µM (active) in the test with HOP-92; 1.38 µM (inactive) in the test with HT-29; 0.192 µM (active) in the test on IGROV-1. The GI50 was 0.867 µM (active) in the test on KM12; 0.863 µM (active) with M14; 2.65 µM (inactive) in the test with NCI-H226; 0.955 µM (active) in the test on OVCAR-3; 1.48 µM (inactive) in the test on OVCAR-5; 2.18 µM (inactive) in the test on OVCAR-8. The GI50 was 0.701 µM (active) with RXF 393; 2.64 µM (inactive) with SF-295; 1.49 µM (inactive) in the test with SK-MEL-2; 1.49 µM (inactive) in the test with SN12C; 2.44 µM (inactive) in the test on SNB-19; 0.927 µM (active) in the test on SW-620. For the same compound, the GI50 in the test on TK-10 was 0.627 µM (active); in the test on UO-31, 0.971 µM (active).

With `CSC(=N)N1N=C2/C(=C/c3ccccc3)CCC[C@H]2[C@H]1c1ccccc1`, the GI50 with 786-0 is 5.47 µM (inactive); with A498, 4.11 µM (inactive); in the test with COLO 205, 1.55 µM (inactive); in the test with HOP-92, 4.28 µM (inactive); in the test on HT-29 it was 2.07 µM (inactive); in the test on IGROV-1, 2.12 µM (inactive). Also, the GI50 is 9.84 µM (inactive) in the test on KM12; 3.67 µM (inactive) with M14; 2.64 µM (inactive) with NCI-H226; 10.6 µM (inactive) in the test with OVCAR-3; 3.98 µM (inactive) with OVCAR-5; 10.8 µM (inactive) with OVCAR-8. Also, the GI50 in the test on RXF 393 was 2.86 µM (inactive); with SF-295, 4.69 µM (inactive); with SK-MEL-2, 4.2 µM (inactive); in the test with SN12C, 3.92 µM (inactive); in the test on SNB-19 it was 6.47 µM (inactive); with SW-620 it was 3.91 µM (inactive). For the same compound, the GI50 in the test on TK-10 is 12.7 µM (inactive); in the test with UO-31, 3.4 µM (inactive).

As to `CS(=O)(=O)c1n[nH]c2nc(O)nc(O)c12`, the GI50 with 786-0, in the test on A498, with COLO 205, in the test with HOP-92, with HT-29 and with IGROV-1 was > 10 µM (inactive) throughout. The GI50 with KM12, in the test with M14, in the test on NCI-H226, with OVCAR-3, in the test with OVCAR-5 and in the test on OVCAR-8 was > 10 µM (inactive) throughout. For the same compound, the GI50 in the test on RXF 393, in the test on SF-295, in the test with SK-MEL-2, in the test on SN12C, in the test on SNB-19 and in the test with SW-620 was > 10 µM (inactive) each time. For the same compound, in the test with TK-10, the GI50 was > 10 µM (inactive).
